Laboratory results published in paper PMC9861386, “N-Heterocyclic Carbene-Iridium Complexes as Photosensitizers for In Vitro Photodynamic Therapy to Trigger Non-Apoptotic Cell Death in Cancer Cells” (Molecules, 2023).

Experiments:
Format in all cases: cell-based, human
[1] = system: MCF7/FasR and MCF7/FasR/Bcl-xL cells; test: Bcl-xL dependence of cell death, MTT in MCF7/FasR vs MCF7/FasR/Bcl-xL; details: complexes: 458 nm irradiation, 10 nM to 1 µM, TNFα 100 ng/mL, 72 h
Source text: To determine the mechanism of cell death, we used MCF7 cells transfected to express the human Fas receptor (FasR) or doubly transfected to express the human Fas receptor and human Bcl-xL [75]. Since MCF7 cells express the TNF receptor endogenously, this allowed the study of both Fas- and TNFα-mediated apoptosis in the same cell model to assess whether cell death was dependent on the Bcl-2 family of mitochondrial proteins such as Bcl-xL. […]
Mitochondrial outer membrane permeabilization (MOMP), which leads to rapid cell death through the release of mitochondrial proteins (including cytochrome c) that activate executioner caspases, is the critical event in intrinsic apoptosis. […] We then assessed whether the cell death induced by our complexes could be abrogated by the overexpression of Bcl-xL.
A tetrazolium-based MTT reagent (3-(4,5-dimethylthiazol-2-yl)-2,5-diphenyltetrazolium bromide) was used to determine cell viability, as previously described. […] After solubilization with 500 μL of lysis buffer (DMSO), formazan was quantified by spectrophotometry with a microplate reader at 570 nm absorbance (ClarioSTAR, BMG LabTech, Champigny-sur-Marne, France). […] All results were calculated from data obtained in at least three independent experiments. […]
Figure 13 Evaluation of apoptotic biomarkers. […] (B) MTT, ATP and GSH assays were evaluated in duplicate samples. […]

[2] = system: MCF7/FasR and MCF7/FasR/Bcl-xL cells; test: GSH quantification (GSH-Glo); details: complex 4a all doses with 458 nm irradiation; TNFα 100 ng/mL; 72 h
Procedure: ATP and glutathione (GSH) contents were measured with the Promega CellTiter-Glo (Cat#G7570) and GSH-Glo (cat#6911) luminescent assays, respectively, according to the manufacturer’s recommendations.
Figure 13 Evaluation of apoptotic biomarkers. MCF7/FasR and MCF7/FasR/Bcl-xL cells were irradiated at 458 nm in presence of the indicated concentration of complex 4a or treated with […] TNFα for 72 h. (A) Cytosolic extracts from MCF7/FasR and MCF7/FasR/Bcl-xL cells were separated by SDS-PAGE and probed with anti-PARP, anti-caspase-7 and anti-caspase-8. Migrations indicated are: full-length PARP p113, cleaved PARP p89, full-length caspase-7 and full-length caspase-8. (B) MTT, ATP and GSH assays were evaluated in duplicate samples. Data are expressed as percent (%) of untreated cells and are the means of 3 independent experiments (***, p < 0.0001, NS, not significant).

[3] = system: MCF7/FasR cells; test: Cell death with or without pan-caspase inhibitor z-VAD-fmk, MTT; details: TNFα 100 ng/mL, 72 h, MCF7/FasR, MTT
Source text: To determine the mechanism of cell death, we used MCF7 cells transfected to express the human Fas receptor (FasR) or doubly transfected to express the human Fas receptor and human Bcl-xL [75]. Since MCF7 cells express the TNF receptor endogenously, this allowed the study of both Fas- and TNFα-mediated apoptosis in the same cell model to assess whether cell death was dependent on the Bcl-2 family of mitochondrial proteins such as Bcl-xL. […] This is consistent with findings that death receptors such as FasR and TNFR can mediate apoptosis through both the extrinsic pathway (mitochondria-independent by directly activating executioner caspases via upstream caspase-8) and the intrinsic (mitochondrial) pathway controlled by the Bcl-2 family of proteins.
We next evaluated the effect of the pan-caspase inhibitor z-VAD-fmk on caspase signaling. As expected, the treatment with z-VAD-fmk rendered MCF7/FasR cells resistant to TNFα-induced PARP and caspase-7 processing (Figure 14A) and to the loss of cell viability (Figure 14B).
A tetrazolium-based MTT reagent (3-(4,5-dimethylthiazol-2-yl)-2,5-diphenyltetrazolium bromide) was used to determine cell viability, as previously described. After 72 h of treatment at 37 °C and 5% CO2, cells were incubated with 25 μL MTT solution (5 mg/mL; Sigma-Aldrich) for 4 h. After solubilization with 500 μL of lysis buffer (DMSO), formazan was quantified by spectrophotometry with a microplate reader at 570 nm absorbance (ClarioSTAR, BMG LabTech, Champigny-sur-Marne, France). […] All results were calculated from data obtained in at least three independent experiments.
Figure 11 Bcl-xL and z-VAD-fmk inhibited by Fas- or TNFα-induced cell death in MCF7 cells. […] Cell death was assessed by MTT assay. […]
Figure 14 Evaluation of apoptotic biomarkers. […] (B) Cell viability was evaluated in duplicate samples. Data are expressed as percent (%) of untreated cells and are the means of 3 independent experiments (***, p < 0.0001, NS, not significant).

Substance: TNFα
- effect of Bcl-xL overexpression on loss of cell viability [1]: strongly inhibited by Bcl-xL
- level of reduced GSH [2]: decreased
- reduction in cell viability [3]: 65–85%
